Assay results: PubChem BioAssay AID1993 (NMMLSC, 2009)
Active and inactive are the calls of the source.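 How the source made its calls: active means fluorescence area over time at least a quarter above or below the solvent control area (some results past the limit were not filed as active); inactive means the rest.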

System: U937 FPR-DeltaST, VLA-4 LDV-FITC binding, flow cytometry
Assay: FPR-triggered VLA-4 ligand binding change in U937, RGS protein inhibitor project, cell-based, U937 FPR-DeltaST, LDV-FITC, flow cytometry (AID 1993)
Settings: at 10 µM; hits give high values

Row | SMILES | AUC
1 | O=c1c2ccccc2sn1-c1cc(S(=O)(=O)N2CCOCC2)ccc1N1CCCC1 | 19600 (inactive)
2 | O=C(NCCCN1CCOCC1)c1sc2cc([N+](=O)[O-])ccc2c1Cl | 27100
3 | CCN(CC)S(=O)(=O)c1cccc(C(=O)N/N=C/c2ccc(O)c(O)c2O)c1 | 26500
4 | NS(=O)(=O)c1ccc(N/N=C/c2ccc(O)c(O)c2O)c([N+](=O)[O-])c1 | 20500 (inactive)
5 | Cc1cccc(N2CCN(C(=O)Cn3sc4nc(C)cc(C)c4c3=O)CC2C)c1 (configuration not stated) | 25500
6 | CCC(=O)NC1=C(Cl)C(=O)C(NC(=O)CC)=C(Cl)C1=O | 11600 (inactive)
7 | CCOC(=O)C1CCCN(C(=O)Cn2sc3nc(C)cc(C)c3c2=O)C1 (configuration not stated) | 27900
8 | Cc1ccc(NC(=O)Cn2sc3nc(C)cc(C)c3c2=O)c(Cl)c1 | 23500 (inactive)
9 | Cc1cc(C)c2c(=O)n(CC(=O)Nc3cccc(F)c3)sc2n1 | 25000 (inactive)
10 | COc1ccc(OC)c(CCNC(=O)Cn2sc3nc(C)cc(C)c3c2=O)c1 | 26600
11 | CC(NC(=O)c1sc2cc([N+](=O)[O-])ccc2c1Cl)C(C)(C)C (configuration not stated) | 29100
12 | Cc1cc(C)c2c(=O)n(CC(=O)Nc3ccc(Cl)cc3)sc2n1 | 22800 (inactive)
13 | O=C1C(Cl)=C(N2CCCCC2)C(=O)C(Cl)=C1c1cnc(N2CCCCC2)s1 | 2540 (inactive)
14 | Cc1[nH]n(-c2ccccc2)c(=S)c1C=Nc1cccc([N+](=O)[O-])c1 | 26500
15 | O=c1c2ccccc2sn1-c1ccc(S(=O)(=O)N2CCCC2)cc1 | 19400 (inactive)
16 | O=c1c2ccccc2sn1-c1ccccc1 | 18300 (inactive)
17 | Nc1c(C(=O)NCC2CCCO2)sc2nc3c(c(-c4ccco4)c12)CC/C3=C\c1ccco1 (configuration not stated) | 455 (inactive)
